pIC50: −log10 of the molar value. Like-named read-outs stand apart in the source and are kept apart here.
Assays:
[1] = tested on: MCF7 cells expressing mutant estrogen receptor Tyr 537 Ser; assay: Test B: cell proliferation/viability assay (CellTiter-Glo) on MCF7 Tyr 537 Ser mutant; format: cell-based; conditions: Homo sapiens, MCF7, 168 h, MCF7 cells expressing ER Tyr 537 Ser mutant, 7 days of compound exposure, read-out: proliferation MCF7 Y537S IC50
Summary of the method: (§1)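 Seven-day compound exposure, 9 concentrations from 3 to 0.000001 μM, in phenol red-free medium with 5% charcoal-stripped serum. ER Tyr537Ser and Asp538Gly lines derive from transfected MCF7 selected to grow without estradiol. Viability from CellTiter-Glo luminescence, background-corrected, as percent of untreated.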

[2] = molecular target: His6-ERα298-554 Y537S mutant (ERα ligand-binding domain) (Homo sapiens (Human), UniProt P03372, Y537S); assay: Test A: biochemical antagonist activity, LanthaScreen TR-FRET ERα coactivator assay, Y537S mutant; conditions: read-out: Antagonism Y537S IC50
His6-ERα298-554 Y537S mutant (ERα ligand-binding domain), sequence (P03372 298-554 Y537S): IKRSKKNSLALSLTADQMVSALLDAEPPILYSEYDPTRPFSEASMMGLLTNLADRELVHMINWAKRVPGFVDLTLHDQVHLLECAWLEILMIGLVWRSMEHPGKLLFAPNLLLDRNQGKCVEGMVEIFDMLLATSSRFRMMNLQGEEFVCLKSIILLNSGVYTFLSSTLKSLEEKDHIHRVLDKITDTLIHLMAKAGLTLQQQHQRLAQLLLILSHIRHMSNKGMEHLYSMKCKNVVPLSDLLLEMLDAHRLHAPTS
Summary of the method: (§2)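 His6-ERα LBD (0.5 nM) with 0.5 nM Tb-anti-His6 antibody, 250 nM PGC1a peptide and 3 nM (or 10 nM) estradiol in 100 mM potassium phosphate pH 7.4 with 5 mM DTT, incubated overnight at room temperature with compound.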

[3] = tested on: MCF7 cells expressing mutant estrogen receptor Asp 538 Gly; assay: Test B: cell proliferation/viability assay (CellTiter-Glo) on MCF7 Asp 538 Gly mutant; format: cell-based; conditions: Homo sapiens, MCF7, 168 h, MCF7 cells expressing ER Asp 538 Gly mutant, 7 days of compound exposure, read-out: proliferation MCF7 D538G IC50
Summary of the method: as §1

[4] = molecular target: His6-ERα298-554 D538G mutant (ERα ligand-binding domain) (Homo sapiens (Human), UniProt P03372, D538G); assay: Test A: biochemical antagonist activity, LanthaScreen TR-FRET ERα coactivator assay, D538G mutant; conditions: read-out: Antagonism D538G IC50
His6-ERα298-554 D538G mutant (ERα ligand-binding domain), sequence (P03372 298-554 D538G): as the sequence (P03372 298-554 Y537S) above, with S240Y, D241G counted along it
Summary of the method: as §2

[5] = tested on: MCF7 cells (breast tumor cells) WT; assay: Test B: cell proliferation/viability assay (CellTiter-Glo) on MCF7 WT; format: cell-based; conditions: Homo sapiens, MCF7, 168 h, 7 days of compound exposure
Summary of the method: as §1

ERα in MCF7 cells = ERα in MCF7 cells (Homo sapiens (Human), UniProt P03372); assay: Test C: estrogen receptor degradation activity, ERα in cell western assay in MCF7 cells; format: cell-based; conditions: for DC50: 4 hours post compound addition, ERα in cell western, read-out: Degradation IC50; for % Degradation at 3 μM: 4 hours, relative to fulvestrant
ERα in MCF7 cells, sequence (P03372 whole entry): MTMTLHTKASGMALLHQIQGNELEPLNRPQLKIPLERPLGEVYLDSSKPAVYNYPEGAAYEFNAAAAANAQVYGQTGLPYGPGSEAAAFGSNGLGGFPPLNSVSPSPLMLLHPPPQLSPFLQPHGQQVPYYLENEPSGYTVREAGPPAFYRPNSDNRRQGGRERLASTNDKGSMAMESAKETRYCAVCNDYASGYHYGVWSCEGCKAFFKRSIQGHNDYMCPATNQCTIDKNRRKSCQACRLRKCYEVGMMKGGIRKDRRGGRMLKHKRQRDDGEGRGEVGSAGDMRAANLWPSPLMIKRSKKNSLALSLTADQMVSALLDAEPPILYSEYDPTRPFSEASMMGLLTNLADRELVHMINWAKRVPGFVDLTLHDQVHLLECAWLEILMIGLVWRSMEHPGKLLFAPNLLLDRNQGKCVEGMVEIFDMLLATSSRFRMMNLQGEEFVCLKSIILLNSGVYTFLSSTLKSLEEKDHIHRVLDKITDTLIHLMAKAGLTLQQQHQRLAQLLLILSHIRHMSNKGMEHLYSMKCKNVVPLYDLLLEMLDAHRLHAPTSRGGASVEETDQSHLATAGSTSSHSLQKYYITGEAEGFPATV
Summary of the method: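 In-cell western: ERα level (green) against DNA stain Syto-64 (red) by integrated intensity. MCF7 cells in hormone-depleted medium exposed 4 h to compound at 3-0.000018 μM final (1:5 series); fulvestrant 0.1 μM as positive control.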

[6] = molecular target: His6-ERα298-554 WT (ERα ligand-binding domain) (Homo sapiens (Human), UniProt P03372); assay: Test A: biochemical antagonist activity, LanthaScreen TR-FRET ERα coactivator assay, WT; conditions: read-out: Antagonism WT IC50
His6-ERα298-554 WT (ERα ligand-binding domain), sequence (P03372 298-554): as the sequence (P03372 298-554 Y537S) above, with S240Y counted along it
Summary of the method: as §2

[7] = asterisk (*): protocol using 10 nM estradiol

In the case of `Oc1ccc2c(c1)SCC(c1ccc(C(F)F)cc1F)=C2c1ccc(O[C@H]2CCN(CCCF)C2)cc1` [Example 62, 3-[4-(difluoromethyl)-2-fluoro-phenyl]-4-[4-[(3S)-1-(3-fluoropropyl)pyrrolidin-3-yl]oxyphenyl]-2H-thiochromen-7-ol], the pIC50 [1] was 8.22, the pIC50 [2, 7] was 6.57 and the pIC50 [3] was 9.70. It also gave a pIC50 [4, 7] of 6.28, a pIC50 [5] of 9.40 and a DC50 (ERα in MCF7 cells) of 0.2 nM. The “% Degradation at 3 μM” value (ERα in MCF7 cells) was 80% and the pIC50 [6, 7] was 7.57.
In the case of `CCOc1ccc(C2=C(c3ccc(O[C@H]4CCN(CCCF)C4)cc3)c3ccc(O)cc3SC2)c(F)c1Cl` [Example 63, 3-(3-chloro-4-ethoxy-2-fluoro-phenyl)-4-[4-[(3S)-1-(3-fluoropropyl)pyrrolidin-3-yl]oxyphenyl]-2H-thiochromen-7-ol], the pIC50 [1] was under 6.00, the pIC50 [2, 7] was 5.61 and the pIC50 [3] was 8.30. The pIC50 [4, 7] was under 5.40, the pIC50 [5] was 8.30 and the DC50 (ERα in MCF7 cells) was 0.3 nM. The “% Degradation at 3 μM” value (ERα in MCF7 cells) was 86% and the pIC50 [6, 7] was 6.50.
With `Cc1ccc(C2=C(c3ccc(O[C@H]4CCN(CCCF)C4)cc3)c3ccc(O)cc3SC2)c(F)c1F` [Example 64, 3-(2,3-difluoro-4-methyl-phenyl)-4-[4-[(3S)-1-(3-fluoropropyl)pyrrolidin-3-yl]oxyphenyl]-2H-thiochromen-7-ol] the pIC50 [1] was 8.30, the pIC50 [2, 7] was 6.69 and the pIC50 [3] was 9.15. It also gave a pIC50 [4, 7] of 6.31, a pIC50 [5] of 9.00 and a DC50 (ERα in MCF7 cells) of 0.2 nM. For the same compound, the “% Degradation at 3 μM” value (ERα in MCF7 cells) was 81% and the pIC50 [6, 7] was 7.62.
Compound `CC(C)(C)OC(=O)Nc1ccc(C2=C(c3ccc(O[C@H]4CCN(CCCF)C4)cc3)c3ccc(O)cc3SC2)c(F)n1` [Example 65, tert-butyl N-[6-fluoro-5-[4-[4-[(3S)-1-(3-fluoropropyl)pyrrolidin-3-yl]oxyphenyl]-7-hydroxy-2H-thiochromen-3-yl]-2-pyridyl]carbamate] has a pIC50 [1] of 6.24, a pIC50 [2, 7] of under 5.40 and a pIC50 [3] of 7.68. For the same compound, the pIC50 [4, 7] was under 5.40, the pIC50 [5] was 7.68 and the DC50 (ERα in MCF7 cells) was 38 nM. The “% Degradation at 3 μM” value (ERα in MCF7 cells) was 71% and the pIC50 [6, 7] was 5.91.
In the case of `Oc1ccc2c(c1)SCC(c1ccc(SC(F)(F)F)cc1)=C2c1ccc(O[C@H]2CCN(CCCF)C2)cc1` [Example 66, 4-[4-[(3S)-1-(3-fluoropropyl)pyrrolidin-3-yl]oxyphenyl]-3-[4-(trifluoromethylsulfanyl)phenyl]-2H-thiochromen-7-ol], the pIC50 [1] was 8.10, the pIC50 ([2]; protocol with 3 nM estradiol) was 6.44 and the pIC50 [3] was 8.70. It also gave a pIC50 ([4]; protocol with 3 nM estradiol) of 5.74, a pIC50 [5] of 8.70 and a DC50 (ERα in MCF7 cells) of 0.2 nM. The “% Degradation at 3 μM” value (ERα in MCF7 cells) was 84% and the pIC50 ([6]; protocol with 3 nM estradiol) was 7.23.
For `Oc1ccc2c(c1)SCC(c1ccc3ncccc3c1)=C2c1ccc(O[C@H]2CCN(CCCF)C2)cc1` [Example 67, 4-[4-[(3S)-1-(3-fluoropropyl)pyrrolidin-3-yl]oxyphenyl]-3-(6-quinolyl)-2H-thiochromen-7-ol], the pIC50 [1] was 7.07, the pIC50 [2, 7] was 5.89 and the pIC50 [3] was 7.80. It also gave a pIC50 [4, 7] of 5.74, a pIC50 [5] of 7.92 and a DC50 (ERα in MCF7 cells) of 1 nM. For the same compound, the “% Degradation at 3 μM” value (ERα in MCF7 cells) was 90% and the pIC50 [6, 7] was 6.92.
With `CCOc1nccc(C2=C(c3ccc(O[C@H]4CCN(CCCF)C4)cc3)c3ccc(O)cc3SC2)c1F` [Example 69, 3-(2-ethoxy-3-fluoro-4-pyridyl)-4-[4-[(3S)-1-(3-fluoropropyl)pyrrolidin-3-yl]oxyphenyl]-2H-thiochromen-7-ol] the pIC50 [1] was 9.10, the pIC50 [2, 7] was under 5.40 and the pIC50 [3] was 9.70. For the same compound, the pIC50 [4, 7] was under 5.40, the pIC50 [5] was 9.70 and the DC50 (ERα in MCF7 cells) was 0.2 nM. For the same compound, the “% Degradation at 3 μM” value (ERα in MCF7 cells) was 81% and the pIC50 [6, 7] was 5.80.
For `Nc1ccc(C2=C(c3ccc(O[C@H]4CCN(CCCF)C4)cc3)c3ccc(O)cc3SC2)c(F)n1` [Example 72, 3-(6-amino-2-fluoro-3-pyridyl)-4-[4-[(3S)-1-(3-fluoropropyl)pyrrolidin-3-yl]oxyphenyl]-2H-thiochromen-7-ol], the pIC50 [1] was 9.00, the pIC50 [2, 7] was 6.97 and the pIC50 [3] was 9.30. For the same compound, the pIC50 [4, 7] was 6.69, the pIC50 [5] was 8.70 and the DC50 (ERα in MCF7 cells) was 0.2 nM. The “% Degradation at 3 μM” value (ERα in MCF7 cells) was 91% and the pIC50 [6, 7] was 7.96.
With `CC1(C)CNc2ccc(C3=C(c4ccc(O[C@H]5CCN(CCCF)C5)cc4)c4ccc(O)cc4SC3)cc21` [Example 73, 3-(3,3-dimethylindolin-5-yl)-4-[4-[(3S)-1-(3-fluoropropyl)pyrrolidin-3-yl]oxyphenyl]-2H-thiochromen-7-ol] the pIC50 [1] was 6.42, the pIC50 [2, 7] was under 5.40 and the pIC50 [3] was 6.92. For the same compound, the pIC50 [4, 7] was under 5.40, the pIC50 [5] was 7.02 and the DC50 (ERα in MCF7 cells) was 6 nM. For the same compound, the “% Degradation at 3 μM” value (ERα in MCF7 cells) was 86% and the pIC50 [6, 7] was 5.96.
`CCN(CC)c1ccc(C2=C(c3ccc(O[C@H]4CCN(CCCF)C4)cc3)c3ccc(O)cc3SC2)c(F)c1` [Example 74, 3-[4-(diethylamino)-2-fluoro-phenyl]-4-[4-[(3S)-1-(3-fluoropropyl)pyrrolidin-3-yl]oxyphenyl]-2H-thiochromen-7-ol] gave a pIC50 [1] of 6.76, a pIC50 [2, 7] of 5.62 and a pIC50 [3] of 7.80. For the same compound, the pIC50 [4, 7] was under 5.40, the pIC50 [5] was 7.92 and the DC50 (ERα in MCF7 cells) was 4 nM. For the same compound, the “% Degradation at 3 μM” value (ERα in MCF7 cells) was 83% and the pIC50 [6, 7] was 6.49.
Work on `CC(C)(C)c1ccc(C2=C(c3ccc(O[C@H]4CCN(CCCF)C4)cc3)c3ccc(O)cc3SC2)c(F)n1` [Example 75, 3-(6-tert-butyl-2-fluoro-3-pyridyl)-4-[4-[(3S)-1-(3-fluoropropyl)pyrrolidin-3-yl]oxyphenyl]-2H-thiochromen-7-ol] yielded a pIC50 [1] of under 6.00, a pIC50 [2, 7] of under 5.40 and a pIC50 [3] of 7.13. It also gave a pIC50 [4, 7] of under 5.40, a pIC50 [5] of 7.20 and a DC50 (ERα in MCF7 cells) of 27 nM. The “% Degradation at 3 μM” value (ERα in MCF7 cells) was 92% and the pIC50 [6, 7] was 5.60.
Work on `CCOc1ccc(C2=C(c3cnc(O[C@H]4CCN(CCCF)C4)nc3)c3ccc(O)cc3SC2)c(F)n1` [Example 76, 3-(6-ethoxy-2-fluoro-3-pyridyl)-4-[2-[(3S)-1-(3-fluoropropyl)pyrrolidin-3-yl]oxypyrimidin-5-yl]-2H-thiochromen-7-ol] yielded a pIC50 [1] of 8.22, a pIC50 [2, 7] of 7.21 and a pIC50 [3] of 9.00. It also gave a pIC50 [4, 7] of 7.00, a pIC50 [5] of 9.22 and a DC50 (ERα in MCF7 cells) of 0.6 nM. For the same compound, the “% Degradation at 3 μM” value (ERα in MCF7 cells) was 88% and the pIC50 [6, 7] was 8.40.
In the case of `Cc1ccc(C2=C(c3cnc(O[C@H]4CCN(CCCF)C4)nc3)c3ccc(O)cc3SC2)c(F)c1` [Example 77, 3-(2-fluoro-4-methyl-phenyl)-4-[2-[(3S)-1-(3-fluoropropyl)pyrrolidin-3-yl]oxypyrimidin-5-yl]-2H-thiochromen-7-ol], the pIC50 [1] was 7.54, the pIC50 [2, 7] was 6.71 and the pIC50 [3] was 8.30. It also gave a pIC50 [4, 7] of 6.49, a pIC50 [5] of 8.70 and a DC50 (ERα in MCF7 cells) of 1 nM. For the same compound, the “% Degradation at 3 μM” value (ERα in MCF7 cells) was 91% and the pIC50 [6, 7] was 7.80.
Compound `Cc1ccc(C2=C(c3ccc(O[C@H]4CCN(CCCF)C4)nc3)c3ccc(O)cc3SC2)c(F)c1` [Example 78, 3-(2-fluoro-4-methyl-phenyl)-4-[6-[(3S)-1-(3-fluoropropyl)pyrrolidin-3-yl]oxy-3-pyridyl]-2H-thiochromen-7-ol] has a pIC50 [1] of 8.40, a pIC50 [2, 7] of 7.82 and a pIC50 [3] of 9.05. It also gave a pIC50 [4, 7] of 7.54, a pIC50 [5] of 9.52 and a DC50 (ERα in MCF7 cells) of 0.2 nM. The “% Degradation at 3 μM” value (ERα in MCF7 cells) was 88% and the pIC50 [6, 7] was 9.00.
With `CCOc1ccc(C2=C(c3ccc(O[C@H]4CCN(CCCF)C4)nc3)c3ccc(O)cc3SC2)c(F)n1` [Example 79, 3-(6-ethoxy-2-fluoro-3-pyridyl)-4-[6-[(3S)-1-(3-fluoropropyl)pyrrolidin-3-yl]oxy-3-pyridyl]-2H-thiochromen-7-ol] the pIC50 [1] was 9.10, the pIC50 [2, 7] was 8.30 and the pIC50 [3] was 8.30. The pIC50 [4, 7] was 8.22, the pIC50 [5] was 9.52 and the DC50 (ERα in MCF7 cells) was 0.2 nM. For the same compound, the “% Degradation at 3 μM” value (ERα in MCF7 cells) was 89% and the pIC50 [6, 7] was 9.30.
